Measured values reported in ChEMBL document CHEMBL5244233 (Eur J Med Chem, 2020).

Legend:
4T1 = experiment: Cytotoxicity against mouse 4T1 cells assessed as inhibition of cell proliferation by MTT assay; format: functional, cell-based
Caco-2 = experiment: Cytotoxicity against human Caco-2 cells assessed as reduction of cell viability incubated for 24 hrs by MTT assay; format: functional, cell-based; settings: Caco-2, 24 h
DU-145 = experiment: Cytotoxicity against human DU-145 cells assessed as inhibition of cell growth incubated for 72 hrs by MTT assay; format: functional, cell-based; settings: DU-145, 72 h
[1] = Induction of apoptosis in gamma-irradiation induced human U87 cells by PI staining based flow cytometric analysis; format: functional, U-87MG ATCC; settings: U-87 MG, light or radiation study, read-out: MEC
[2] = Reduction of triglyceride level in mouse 3T3-L1 cells incubated for 3 days by AdipoRed staining based fluorescence analysis; format: functional; settings: 3T3-L1, 72 h, time 3 day, read-out: MEC
MDA-MB-231 = experiment: Inhibition of cell migration in human MDA-MB-231 cells measured upto 48 hrs by transwell chamber assay; format: functional
[3] = target: Cannabinoid receptor 1 (Mus musculus) (UniProt P47746); experiment: Antagonist activity at mouse brain membrane CB1 receptor assessed as stimulation of [35S]-GTPgammaS binding by measuring apparent dissociation constant incubated for 60 mins by liquid scintillation counting method; format: cell membranes; settings: filed as antagonist
Sequence of Cannabinoid receptor 1 (Mus musculus) (P47746 whole entry): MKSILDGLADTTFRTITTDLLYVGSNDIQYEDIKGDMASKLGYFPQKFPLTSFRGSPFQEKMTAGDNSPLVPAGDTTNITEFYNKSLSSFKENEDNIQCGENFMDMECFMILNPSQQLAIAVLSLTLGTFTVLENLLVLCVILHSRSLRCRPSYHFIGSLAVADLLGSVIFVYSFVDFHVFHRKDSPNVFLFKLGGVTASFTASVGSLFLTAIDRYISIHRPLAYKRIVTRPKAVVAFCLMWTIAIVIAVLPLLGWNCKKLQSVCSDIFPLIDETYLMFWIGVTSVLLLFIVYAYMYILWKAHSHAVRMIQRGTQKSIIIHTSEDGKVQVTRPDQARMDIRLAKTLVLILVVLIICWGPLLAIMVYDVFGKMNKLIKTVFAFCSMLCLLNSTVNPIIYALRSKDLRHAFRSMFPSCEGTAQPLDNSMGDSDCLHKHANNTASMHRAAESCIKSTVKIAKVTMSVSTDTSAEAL

Rattus norvegicus [4] = species: Rattus norvegicus; experiment: Protection against LiCl-induced nausea in rat assessed as reduction in conditioned gaping; format: functional; settings: read-out: MED
Rattus norvegicus [5] = experiment: Protection against LiCl-induced nausea in ip dosed rat assessed as reduction in conditioned gaping; format: functional
Cannabinoid receptor 1 = Cannabinoid receptor 1 (Rattus norvegicus, UniProt P20272); experiment: Displacement of [3H]HU243 from rat brain membrane CB1 receptor assessed as inhibition constant incubated for 90 mins; format: cell membranes
Sequence of Cannabinoid receptor 1 (P20272 whole entry): as the sequence (P47746 whole entry) above, with D95E counted along it

## C=C(C)[C@@H]1CCC(C)=C[C@H]1c1c(O)cc(CCCCC)cc1O [CANNABIDIOL]
4T1
  IC50: 1800 nM
Caco-2
  IC50: 3730 nM
DU-145
  IC50: 5400 nM
[1]
  minimal effective concentration: ≤ 5 µM
[2]
  minimal effective concentration: ≤ 5 µM

## C=C(C)[C@@H]1CCC(C)=C[C@H]1c1c(O)cc(CCCCC)c(C(=O)O)c1O [CANNABIDIOLIC ACID]
MDA-MB-231
  MIC: ≤ 5 µM
[3]
  Kb: 1800 nM
Rattus norvegicus [4]
  minimal effective dose: 2.5 µg/kg

## C=C(C)[C@@H]1CCC(C)=C[C@H]1c1c(O)cc(CCC)cc1O [CANNABIDIVARIN]
Caco-2
  IC50: 10100 nM
Rattus norvegicus [5]
  MED: 200000 µg/kg

## C=C(C)[C@@H]1CCC(C)C[C@H]1c1c(O)cc(CCCCC)cc1O (stereo partly specified)
Cannabinoid receptor 1
  Ki: 145 nM
